The source of these data is patent US20250250239A1, “SOLID STATE FORMS OF MAVACAMTEN AND PROCESS FOR PREPARATION THEREOF” (Assia Chemical Industries Ltd., priority 2022, published 2025).

What all share (assay type): physicochemical
The nature of series [1]: Grinding experiments (strong grinding and solvent drop grinding, XRPD). The conditions noted are these: for XRPD analysis results: 2 minutes. The method, then: (§1) Sample, after being powdered in a mortar and pestle, is applied directly on a silicon plate holder. The X-ray powder diffraction pattern was measured with Philips X'Pert PRO X-ray powder diffractometer, equipped with Cu irradiation source=1.54184 Å (Ångstrom), X'Celerator (2.022° 2θ) detector. Scanning parameters: angle range: 3-40 deg., step size 0.0167, time per step 37 s, continuous scan. The described peak positions were determined using silicon powder as an internal standard.
Samples of Mavacamten Form 7 were subjected to strong grinding, and to solvent drop grinding in isopropanol, ethanol, ethyl acetate, acetone and water. Grinding was carried out on the samples alone, or in the presence of a solvent. In these experiments, about 20 mg of the sample is placed in a mortar and ground with a pestle for 2 minutes. The solvent, when used, as added to the crystalline material before grinding, in a volume of 10 microliters.

Series [2] in a line: Stability to compression (pressure of 1 ton, XRPD). The note with it: Pressure (1 tons), XRPD after 2 minutes. On the procedure: as §1
A sample of Mavacamten Form 7 was subjected to a pressure of 1 ton (Atlas® Autopress hydraulic press, set to 1 ton). XRPD analysis was performed on the sample after 2 minutes.

The nature of series [3]: Storage stability at different relative humidities (XRPD analysis). The note with it: high and low relative humidity, ambient temperature. The method, then:
as §1
(§2) Samples of Mavacamten Form 7 were subjected to conditions of different relative humidities at ambient temperature; TGA weight loss analysis was performed on the samples after 7 days, XRPD analysis was performed after 30 days.

The nature of series [4]: Stability experiments, all tested stress conditions (summary). The conditions noted are these: strong grinding, pressure of 1 ton, high humidity (up to 100% RH for 30 days), high temperature (up to 100° C.). The source says: Example 2: Stability Experiments
Series [5] in a line: Sauna experiments (exposure to solvent vapors, XRPD). On the procedure:
as §1
Samples of Mavacamten Form 7 (about 20-30 mg) were exposed for 7 days to vapors of different solvents in a sealed chamber.

A short description of series [6]: Thermal stability (heating, XRPD). The conditions noted are these: Heating 100° C., 30 minutes. On the procedure:
as §1
A sample of Mavacamten Form 7 was subjected to heating up to 100° C. for 30 minutes.

A short description of series [7]: TGA weight loss after storage at different relative humidities (hygroscopicity). The conditions noted are these: for TGA weight loss after 7 days (up to 190° C.): ambient temperature. On the procedure:
as §2

“Also recorded” adds a separate entry of the source.

As to `CC(C)n1c(=O)cc(N[C@@H](C)c2ccccc2)[nH]c1=O` [Mavacamten Form 7, 6-{[(1S)-1-phenylethyl]amino}-3-(propan-2-yl)-1,2,3,4-tetrahydropyrimidine-2,4-dion], the XRPD analysis results in series [1] (Solvent-drop grinding (acetone)), in series [1] (Solvent-drop grinding (ethanol)), in series [1] (Solvent-drop grinding (ethyl-acetate)), in series [1] (Solvent-drop grinding (isopropanol)), in series [1] (Solvent-drop grinding (water)) and in series [1] (Strong grinding) was “No polymorphic conversion” each time. In addition, the XRPD analysis results in series [2], in series [5] (Sauna (RT/7 days) (ethanol)), in series [5] (Sauna (RT/7 days) (ethyl acetate)), in series [5] (Sauna (RT/7 days) (isopropanol)) and in series [5] (Sauna (RT/7 days) (water)) was “No polymorphic conversion” each time. Moreover, in series [1] (strong grinding and solvent drop grinding in isopropanol, ethanol, ethyl acetate, acetone and water), the “XRPD analysis after the grinding experiment” value is listed as “no change in the starting material”. Further, the “Stability at relative humidity conditions” value in series [3] was “stable at high and low relative humidity conditions”. Moreover, in series [4], the “Stability under tested stress conditions” value is “stable under all tested stress conditions”. Further, in series [6], the “Result (XRPD analysis)” value was “no change in the starting material; also recorded: No polymorphic conversion”. For the same compound, the Hygroscopicity result in series [7] (as confirmed by TGA, different relative humidities) is “non-hygroscopic”. The “TGA weight loss after 7 days (up to 190° C.)” value is recorded as 0.7% in series [7] (relative humidity 20%); 0.6% in series [7] (relative humidity 40%); 0.8% in series [7] (relative humidity 60%); 0.5% in series [7] (relative humidity 80%); 1% in series [7] (relative humidity 100%).
